According to patent US10072034B2, “Kinase inhibitors” (Respivert Limited, priority 2016, dated 2018):
Converted amounts (≈) assume the structure as drawn. Where a name gives a salt, the structure may show the parent alone. Read-outs that look alike come from different tables or passages of the source.

Key:
[1] = Solubility in fasted-state simulated colonic fluid (FaSSCoF) at pH 6.5; type: physicochemical; settings: pH 6.5, 25° C.; for solubility thermodynamic at 24 h: fasted-state simulated colonic fluid (FaSSCoF), 25 °C, pH 6.5, fassgf or other biorelevant, thermodynamic from solid
Procedure: The solubilities of compounds of the invention in FaSSCoF at pH 6.5 are determined using a modification of a previously-reported procedure (Vertzoni, M., et al. Pharm. Res. 2010, 27, 2187-2196). In place of the bile salt extract employed in the original procedure (which extract is no longer available), the modified procedure uses a mixture of sodium taurocholate (0.15 g), glycocholic acid (0.15 g), ursodeoxycholic acid (0.05 g), cholic acid (0.05 g), and glycodeoxycholic acid (0.05 g). These five bile acids are ground together with a mortar and pestle to produce a fine white powder that is incorporated into the FaSSCoF, as outlined below.
FaSSCoF medium: Tris(hydroxymethyl)aminomethane (Tris; 0.275 g) and maleic acid (0.44 g) are dissolved in water (35 mL) to give a solution whose pH is adjusted to 6.5 by treatment with 0.5M NaOH (ca. 12 mL). The solution is then made up to 50 mL with water. A portion of this Tris/maleate buffer solution (ca. 25 mL) is added to a 0.5 L round-bottomed flask, before being treated with 0.00565 g of the bile acid mixture described above. Solutions of phosphatidylcholine (0.0111 g) in DCM (0.15 mL) and palmitic acid (0.0013 g) in DCM (0.15 mL) are added, then the organic solvent is evaporated off under reduced pressure at 40° C. until a clear solution, with no perceptible DCM odour, is achieved. The volume of the evaporated solution is adjusted to 50 mL by addition of the remainder of Tris/maleate buffer, then BSA (0.115 g) is added, before being dissolved by gentle agitation.
Solubility Determination: Test compounds are suspended in the pH 6.5 FaSSCoF medium to give a maximum final concentration of 2-10 mg/mL. The suspensions are equilibrated at 25° C. for 24 h, before being filtered through a glass fibre C filter. The filtrates are then diluted as appropriate for injection and quantification by HPLC with reference to a standard. Different volumes of the standard, diluted and undiluted sample solutions are injected and the solubilities are calculated using the peak areas determined by integration of the peak found at the same retention time as the principal peak in the standard injection.

IL-8 release in PBMCs = assay: LPS-induced IL-8 release in PBMC cells (assay (b)); type: cell-based; settings: Homo sapiens, LPS-stimulated PBMCs
Excerpt: Peripheral blood mononuclear cells (PBMCs) from healthy subjects are separated from whole blood using a density gradient (Lymphoprep, Axis-Shield Healthcare). […] The supernatant is harvested for determination of IL-8 and TNFα concentrations by sandwich ELISA (Duo-set, R&D systems) and read on the fluorescence microplate reader (Varioskan® Flash, ThermoFisher Scientific).

[2] = Run 1, read-out: pH 6.5 FaSSCoF Solubility Run 1
[3] = Run 2, read-out: pH 6.5 FaSSCoF Solubility Run 2

Q: For COc1cc(Nc2cc(Oc3ccc(NC(=O)Nc4cc(C(C)(C)C)cc(NS(C)(=O)=O)c4OC)c4ccccc34)ccn2)cc(OCCOCCOC(C)C(=O)O)c1 (single isomer, unassigned) [20(a)], which solubility thermodynamic at 24 h [1, 2] is on record?
A: 620 µg/mL (≈ 745 µM)

Q: What about the solubility thermodynamic at 24 h [1, 3] of the same molecule?
A: 640 µg/mL (≈ 769 µM)

Q: Which IC50 (IL-8 release in PBMCs) does the source give for COc1cc(Nc2cc(Oc3ccc(NC(=O)Nc4cc(C(C)(C)C)cc(NS(C)(=O)=O)c4OC)c4ccccc34)ccn2)cc(C(=O)NCCOCCOCC(=O)O)c1 [Example 1, 2-(2-(2-(3-((4-((4-(3-(5-(tert-Butyl)-2-methoxy-3-(methylsulfonamido)phenyl)ureido)-naphthalen-1-yl)oxy)pyridin-2-yl)amino)-5-methoxybenzamido)ethoxy)ethoxy)acetic acid, hydrochloride salt] here?
A: 115 nM

Q: For [2H]C([2H])([2H])Oc1c(NC(=O)Nc2ccc(Oc3ccnc(Nc4cc(OC)cc(OCCOCCOCC(=O)O)c4)c3)c3ccccc23)cc(C(C)(C)C)cc1NS(C)(=O)=O [Example 5, 2-(2-(2-(3-((4-((4-(3-(5-(tert-Butyl)-2-(methoxy-d3)-3-(methylsulfonamido)phenyl)ureido)-naphthalen-1-yl)oxy)pyridin-2-yl)amino)-5-methoxyphenoxy)ethoxy)ethoxy)acetic acid], which IC50 (IL-8 release in PBMCs) is on record?
A: 19.5 nM

Q: Which IC50 (IL-8 release in PBMCs) does the source give for COc1cc(Nc2cc(Oc3ccc(NC(=O)Nc4cc(C(C)(C)C)cc(NS(C)(=O)=O)c4OC)c4ccccc34)ccn2)cc(OCCOCCOCC(=O)NS(C)(=O)=O)c1 [Example 6] here?
A: 18.1 nM

Q: For COc1cc(Nc2cc(Oc3ccc(NC(=O)Nc4cc(C(C)(C)C)cc([S+](C)[O-])c4OC)c4ccccc34)ccn2)cc(OCCOCCOCC(=O)O)c1 (centres unmarked) [Example 8, 2-(2-(2-(3-((4-((4-(3-(5-(tert-Butyl)-2-methoxy)-3-(methylsulfinyl)phenylureido)naphthalen-1-yl)oxy)pyridin-2-yl)amino)-5-methoxyphenoxy)ethoxy)ethoxy)acetic acid], which IC50 (IL-8 release in PBMCs) is on record?
A: 8 nM

Q: What about the solubility thermodynamic at 24 h [1, 2] of the same molecule?
A: 2800 µg/mL (≈ 3560 µM)

Q: And the solubility thermodynamic at 24 h [1, 3]?
A: 3200 µg/mL (≈ 4070 µM)

Q: Which results are given for COc1cc(Nc2cc(Oc3ccc(NC(=O)Nc4cc(C(C)(C)C)cc(S(C)(=O)=O)c4OC)c4ccccc34)ccn2)cc(OCCOCCOCC(=O)O)c1 [Example 9, 2-(2-(2-(3-((4-((4-(3-(5-(tert-Butyl)-2-methoxy-3-(methylsulfonyl)phenyl)ureido)naphthalen-1-yl)oxy)pyridin-2-yl)amino)-5-methoxphenoxy)ethoxy)ethoxy)acetic acid]?
A: IC50 (IL-8 release in PBMCs): 11.7 nM; solubility thermodynamic at 24 h [1, 2]: 460 µg/mL (≈ 573 µM); solubility thermodynamic at 24 h [1, 3]: 540 µg/mL (≈ 673 µM)

Q: Which IC50 (IL-8 release in PBMCs) does the source give for COc1cc(Nc2cc(Oc3ccc(NC(=O)Nc4cc(C(C)(C)C)cc(P(C)(C)=O)c4OC)c4ccccc34)ccn2)cc(OCCOCCOCC(=O)O)c1 [Example 10, 2-(2-(2-(3-((4-((4-(3-(5-(tert-Butyl)-3-(dimethylphosphoryl)-2-methoxyphenyl)ureido)-naphthalen-1-yl)oxy)pyridin-2-yl)amino)-5-methoxyphenoxy)ethoxy)ethoxy)acetic acid] here?
A: 26.5 nM

Q: For COc1cc(Nc2cc(Oc3ccc(NC(=O)Nc4cc(C(C)(C)C)cc(NS(C)(=O)=O)c4OC)c4ccccc34)ccn2)cc(OCCOCc2cc(C(=O)O)co2)c1 [Example 12, 5-((2-(3-((4-((4-(3-(5-(tert-Butyl)-2-methoxy-3-(methylsulfonamido)phenyl)ureido)naphthalen-1 yl)oxy)pyridin-2-yl)amino)-5-methoxyphenoxy)ethoxy)methyl)furan-3-carboxylic acid], which IC50 (IL-8 release in PBMCs) is on record?
A: 5.6 nM

Q: With COc1cc(Nc2cc(Oc3ccc(NC(=O)Nc4cc(C(C)(C)C)cc(NS(C)(=O)=O)c4OC)c4ccccc34)ccn2)cc(OCCOCC2CC(C(=O)O)CO2)c1 (centres unmarked) [Example 13, 5-((2-(3-((4-((4-(3-(5-(tert-Butyl)-2-methoxy-3-methylsulfonamido)phenylureido)naphthalen-1-yl)oxy)pyridin-2-yl)amino)-5-methoxyphenoxy)ethoxy)methyl)tetrahydrofuran-3-carboxylic acid] as the molecule, how does the IC50 (IL-8 release in PBMCs) read?
A: 2.8 nM

Q: For COc1cc(Nc2cc(Oc3ccc(NC(=O)Nc4cc(C(C)(C)C)cc(NS(C)(=O)=O)c4OC)c4ccccc34)ccn2)cc(OCCOCCOC(C)C(=O)O)c1 (centres unmarked) [Example 14], which solubility thermodynamic at 24 h [1, 2] is on record?
A: 1200 µg/mL (≈ 1440 µM)

Q: What about the solubility thermodynamic at 24 h [1, 3] of the same molecule?
A: 1100 µg/mL (≈ 1320 µM)

Q: Which IC50 (IL-8 release in PBMCs) does the source give for CCS(=O)(=O)c1cc(C(C)(C)C)cc(NC(=O)Nc2ccc(Oc3ccnc(Nc4cc(OC)cc(OCCOCCOCC(=O)O)c4)c3)c3ccccc23)c1OC [Example 15] here?
A: 16.4 nM

Q: With CCS(=O)(=O)Nc1cc(C(C)(C)C)cc(NC(=O)Nc2ccc(Oc3ccnc(Nc4cc(OC)cc(OCCOCCOCC(=O)O)c4)c3)c3ccccc23)c1OC [Example 16] as the molecule, how does the IC50 (IL-8 release in PBMCs) read?
A: 16.3 nM

Q: Which results are given for COc1cc(Nc2cc(Oc3ccc(NC(=O)Nc4cc(C(C)(C)C)on4)c4ccccc34)ccn2)cc(OCCOCCOCC(=O)O)c1 [Example 17, 2-(2-(2-(3-((4-((4-(3-(5-(tert-Butyl)isoxazol-3-yl)ureido)naphthalen-1-yl)oxy)pyridin-2-yl)amino)-5-methoxyphenoxy)ethoxy)ethoxy)acetic acid]?
A: solubility thermodynamic at 24 h [1, 2]: 1700 µg/mL (≈ 2480 µM); solubility thermodynamic at 24 h [1, 3]: 1500 µg/mL (≈ 2190 µM)

Q: For COc1cc(Nc2cc(Oc3ccc(NC(=O)Nc4cc(C(C)(C)C)cc(NS(C)(=O)=O)c4OC)c4ccccc34)ccn2)cc(OCCOCCOCc2cc(=O)o[nH]2)c1 [Example 18], which IC50 (IL-8 release in PBMCs) is on record?
A: 29.3 nM

Q: What does the source list for COc1cc(Nc2cc(Oc3ccc(NC(=O)Nc4cc(C(C)(C)C)cc(NS(C)(=O)=O)c4OC)c4ccccc34)ccn2)cc(OCCOCCSCC(=O)O)c1 [Example 19, 2-((2-(2-(3-((4-((4-(3-(5-(tert-Butyl)-2-methoxy-3-(methylsulfonamido)phenyl)ureido)-naphthalen-1-yl)oxy)pyridin-2-yl)amino)-5-methoxyphenoxy)ethoxy)ethyl)thio)acetic acid]?
A: IC50 (IL-8 release in PBMCs): 2.9 nM; solubility thermodynamic at 24 h [1, 2]: 30 µg/mL (≈ 36 µM); solubility thermodynamic at 24 h [1, 3]: 30 µg/mL (≈ 36 µM)

Q: With COc1cc(Nc2cc(Oc3ccc(NC(=O)Nc4cc(C(C)(C)C)cc(NS(C)(=O)=O)c4OC)c4ccccc34)ccn2)cc(OCCOCCOC(C)(C)C(=O)O)c1 [Example 21] as the molecule, how does the IC50 (IL-8 release in PBMCs) read?
A: 14.4 nM

Q: Which IC50 (IL-8 release in PBMCs) does the source give for COc1cc(Nc2cc(Oc3ccc(NC(=O)Nc4cc(C(C)(C)C)cc(NS(C)(=O)=O)c4OC)c4ccccc34)ccn2)cc(OCCOCCn2cc(C(=O)O)cn2)c1 [Example 22] here?
A: 18.1 nM

Q: With COc1cc(Nc2cc(Oc3ccc(NC(=O)Nc4cc(C(C)(C)C)cc(NS(C)(=O)=O)c4OC)c4ccccc34)ccn2)cc(OCCOCC(=O)O)c1 [Example 24] as the molecule, how does the IC50 (IL-8 release in PBMCs) read?
A: 61.9 nM

Q: Which IC50 (IL-8 release in PBMCs) does the source give for COc1cc(Nc2cc(Oc3ccc(NC(=O)Nc4cc(C(C)(C)C)cc(NS(C)(=O)=O)c4OC)c4ccccc34)ccn2)cc(OCCOCCOCC(=O)NS(=O)(=O)N(C)C)c1 [Example 25] here?
A: 26.3 nM

Q: Which IC50 (IL-8 release in PBMCs) does the source give for COc1cc(Nc2cc(Oc3ccc(NC(=O)Nc4cc(C(C)(C)C)cc(NS(C)(=O)=O)c4OC)c4ccccc34)ccn2)cc(OCCOCc2ccc(C(=O)O)s2)c1 [Example 26] here?
A: 15.3 nM

Q: Which IC50 (IL-8 release in PBMCs) does the source give for COc1cc(Nc2cc(Oc3ccc(NC(=O)Nc4cc(C(C)(C)C)cc(NS(C)(=O)=O)c4OC)c4ccccc34)ccn2)cc(OCCOCc2cc(C(=O)O)cs2)c1 [Example 27] here?
A: 7.3 nM

Q: For COc1c(NC(=O)Nc2ccc(Oc3ccnc(Nc4cc(OCCOCCOCC(=O)O)cc(OC(F)F)c4)c3)c3ccccc23)cc(C(C)(C)C)cc1NS(C)(=O)=O [Example 28], which IC50 (IL-8 release in PBMCs) is on record?
A: 20.6 nM

Q: Which solubility thermodynamic at 24 h ([1]; Run 3, read-out: pH 6.5 FaSSCoF Solubility Run 3) does the source give for COc1cc(Nc2nccc(Oc3ccc(NC(=O)Nc4cc(C(C)(C)C)cc(NS(C)(=O)=O)c4OC)c4ccccc34)n2)cc(OCCOCCOCCC(=O)O)c1 [Reference Compound A (sodium salt), reference compound] here?
A: 30 µg/mL

Q: What about the solubility thermodynamic at 24 h ([1]; Run 4, read-out: pH 6.5 FaSSCoF Solubility Run 4) of the same molecule?
A: 30 µg/mL

Q: What about the “pH 6.5 FaSSCoF Solubility Run 1” value ([1]; 24 h, Run 1) of the same molecule?
A: 0.18 mg/mL

Q: And the “pH 6.5 FaSSCoF Solubility Run 2” value ([1]; 24 h, Run 2)?
A: 0.12 mg/mL
